# From patent US9206177B2, “Substituted dimeric quinazoline-2,4-diones as FGF receptor agonists” (Sanofi, priority 2011, dated 2015)
# Test system: human venous endothelial cells (HUVECs)
# Assay: In vitro angiogenesis model (pseudotubule length of HUVECs on matrigel/collagen)
# Assay type: cell-based
# Set-up: % activation with respect to FGF2 (in vitro): concentration or dose not given beside the values
# Details: for EC50 / % activation with respect to FGF2 (in vitro): in vitro; for % activation with respect to FGF2 (in vitro): relative to FGF2
# Procedure: In Vitro Angiogenesis Model
# The products are tested for their ability to cause rearrangement of human venous endothelial cells (HUVECs) on matrigel (Becton dickinson 356230) diluted in collagen (rat tail collagen, type I: Becton dickinson 354236). After 24 hours, the cells are observed under a microscope with a ×4 objective and the length of the pseudotubules is measured by means of an image analyser (BIOCOM-logiciel Visiolab 2000).
Compound,"EC50 (Homo sapiens, HUVEC)",% activation with respect to FGF2 (in vitro),active on the in vitro angiogenesis model (at a concentration of 10 nM),EC50
"Cc1c(-c2cccc(OCCOCCOCCOCCOc3cccc(-c4c(C)c(C(=O)c5ccc6[nH]c(=O)n(CC(=O)O)c(=O)c6c5)n5ccccc45)c3)c2)c2ccccn2c1C(=O)c1ccc2[nH]c(=O)n(CC(=O)O)c(=O)c2c1 [Compound 2, 2,2′-{oxybis[ethane-2,1-diyloxyethane-2,1-diyloxybenzene-3,1-diyl(2-methylindolizine-1,3-diyl)carbonyl(2,4-dioxo-1,4-dihydroquinazoline-6,3(2H)-diyl)]}diacetic acid]",< 1 nM,44%,,
"Cc1c(-c2ccc(OCCOCCOCCOc3ccc(-c4c(C)c(C(=O)c5ccc6[nH]c(=O)n(CC(=O)O)c(=O)c6c5)n5ccccc45)cc3)cc2)c2ccccn2c1C(=O)c1ccc2[nH]c(=O)n(CC(=O)O)c(=O)c2c1 [Compound 3, 2,2′-{ethane-1,2-diylbis[oxyethane-2,1-diyloxybenzene-4,1-diyl(2-methylindolizine-1,3-diyl)carbonyl(2,4-dioxo-1,4-dihydroquinazoline-6,3(2H)-diyl)]}diacetic acid]",< 1 nM,74%,active,
Cc1c(-c2ccc(OCC(=O)NCCCCNC(=O)COc3ccc(-c4c(C)c(C(=O)c5ccc6[nH]c(=O)n(CC(=O)O)c(=O)c6c5)n5ccccc45)cc3)cc2)c2ccccn2c1C(=O)c1ccc2[nH]c(=O)n(CC(=O)O)c(=O)c2c1 [Compound 5],,30%,,< 100 nM
Cc1c(-c2cccc(OCC(=O)NCCCCCCNC(=O)COc3cccc(-c4c(C)c(C(=O)c5ccc6[nH]c(=O)n(CC(=O)O)c(=O)c6c5)n5ccccc45)c3)c2)c2ccccn2c1C(=O)c1ccc2[nH]c(=O)n(CC(=O)O)c(=O)c2c1 [Compound 6],,29%,,< 100 nM
Cc1c(-c2cccc(OCC(=O)NCCCCNC(=O)COc3cccc(-c4c(C)c(C(=O)c5ccc6[nH]c(=O)n(CC(=O)O)c(=O)c6c5)n5ccccc45)c3)c2)c2ccccn2c1C(=O)c1ccc2[nH]c(=O)n(CC(=O)O)c(=O)c2c1 [Compound 7],,28%,,< 100 nM
"Cc1c(-c2ccc(OCCCCCN(CCCCCOc3ccc(-c4c(C)c(C(=O)c5ccc6c(=O)n(CC(=O)O)c(=O)[nH]c6c5)n5ccccc45)cc3)CCOCCO)cc2)c2ccccn2c1C(=O)c1ccc2c(=O)n(CC(=O)O)c(=O)[nH]c2c1 [Compound 8, 2,2′-({[2-(2-hydroxyethoxy)ethyl]imino}bis[pentane-5,1-diyloxybenzene-4,1-diyl(2-methylindolizine-1,3-diyl)carbonyl(2,4-dioxo-1,4-dihydroquinazoline-7,3(2H)-diyl)])diacetic acid]",< 1 nM,42%,,
"CCN(CCCCCOc1ccc(-c2c(C)c(C(=O)c3ccc4c(=O)n(CC(=O)O)c(=O)[nH]c4c3)n3ccccc23)cc1)CCCCCOc1ccc(-c2c(C)c(C(=O)c3ccc4c(=O)n(CC(=O)O)c(=O)[nH]c4c3)n3ccccc23)cc1 [Compound 9, 2,2′-{(ethylimino)bis[pentane-5,1-diyloxybenzene-4,1-diyl(2-methylindolizine-1,3-diyl)carbonyl(2,4-dioxo-1,4-dihydroquinazoline-7,3(2H)-diyl)]}diacetic acid]",< 100 nM,28%,,
"Cc1c(-c2ccc(OCCCCCN(CCCCCOc3ccc(-c4c(C)c(C(=O)c5ccc6c(=O)n(CC(=O)O)c(=O)[nH]c6c5)n5ccccc45)cc3)CCN3CCOCC3)cc2)c2ccccn2c1C(=O)c1ccc2c(=O)n(CC(=O)O)c(=O)[nH]c2c1 [Compound 10, 2,2′-({[2-(morpholin-4-yl)ethyl]imino}bis[pentane-5,1-diyloxybenzene-4,1-diyl(2-methylindolizine-1,3-diyl)carbonyl(2,4-dioxo-1,4-dihydroquinazoline-7,3(2H)-diyl)])diacetic acid]",< 1 nM,41%,,
